# According to ChEMBL document CHEMBL3259635, “Recent developments of metal N-heterocyclic carbenes as anticancer agents” (Eur J Med Chem, 2014):
# Key:
# Format in all cases: functional, cell-based
# [1] = Cytotoxicity against CCO cells; conditions: Ictalurus punctatus
# [2] = Cytotoxicity against rat PC12 cells; conditions: PC-12
# [3] = Cytotoxicity against gastric cancer cells (unknown origin); conditions: Cancer cell lines, Stomach
# [4] = Cytotoxicity against breast cancer cells (unknown origin); conditions: Cancer cell lines
# [5] = Cytotoxicity against epithelial cancer cells (unknown origin); conditions: Cancer cell lines
# [6] = Cytotoxicity against rat PC12 cells after 24 hrs; conditions: PC-12, 24 h
smiles,measurement,setting,value
CCCn1cc[n+](C)c1,EC50,[1],> 10 µM
CCCCCCCCn1cc[n+](C)c1.O=S(=O)([N-]S(=O)(=O)C(F)(F)F)C(F)(F)F,EC50,[1],< 0.1 µM
CCCCn1cc[n+](C)c1,EC50,[2],> 9120 µM
CC(=O)Oc1ccc(Cn2cc[n+](-c3c(C)cc(C)cc3C)c2)cc1,IC50,[3],10 µM
same,IC50,[4],20 µM
CCCCCCCCCCCCn1cc[n+](C)c1,EC50,[2],24 µM
c1c[n+](C23CC4CC(CC(C4)C2)C3)cn1C12CC3CC(CC(C3)C1)C2,IC50,[5],1 µM
c1ccc(Cc2cn(Cc3ccccc3)c[n+]2Cc2ccccc2)cc1,IC50,[5],20 µM
CC(=O)Oc1ccc(Cn2cc[n+](Cc3ccccc3)c2C)cc1,IC50,[5],28 µM
Cc1ccc(C[n+]2ccn(Cc3ccccc3)c2)cc1,IC50,[5],30 µM
Cc1n(Cc2ccccc2)cc[n+]1Cc1ccccc1C(F)(F)F,IC50,[5],35 µM
c1ccc(CCn2cc[n+](CCc3ccccc3)c2)cc1,IC50,[5],20 µM
Cc1n(Cc2ccccc2)cc[n+]1Cc1ccccc1,IC50,[3],35 µM
same,IC50,[4],35 µM
CCCCCCCn1cc[n+](C)c1.O=S(=O)([N-]S(=O)(=O)C(F)(F)F)C(F)(F)F,EC50,[1],< 0.1 µM
CCCCCCCC[n+]1ccn(C)c1,EC50,[6],560 µM
